From patent US9005575B2, “Arg-Gly-Asp-conjugated alpha-melanocyte stimulating hormone hybrid peptide for use in diagnosing and treating melanoma, including metastatic melanoma and methods related to same” (STC.UNM, priority 2009, dated 2015) come the findings set out here.

Values joined by “and” are separate entries in the source; they are usually repeats but may differ in a detail not shown here. Identical values can stand only once. Positions of bridges follow the written chain, without caps; N, C: chain ends. Non-standard residues stand in square brackets, D forms with d. Residues, ends and D or L forms follow the SMILES beside them.

The subject of series [1] is B16/F1 murine melanoma cells. The experiment in a line: Cellular internalization and efflux. Type of series: cell-based. The arrangement: concentration or dose not given beside the values. The conditions noted are these: for Cellular efflux: activity remained inside the cells: 2 h after incubating cells in culture medium; for Activity internalized in the B16/F1 cells: 25° C. The protocol: Cellular internalization and efflux of ^99mTc-RGD-Lys-(Arg^11)CCMSH was evaluated in B16/F1 cells as previously described by Miao et al (27). After being washed once with binding media, B16/F1 cells in 24-well cell culture plates were incubated at 25° C. for 20, 40, 60, 90 and 120 min (n=4) in the presence of approximately 200,000 cpm of HPLC purified ^99mTc-RGD-Lys-(Arg^11)CCMSH. After incubation, the reaction media were aspirated and the cells were rinsed twice with 0.5 ml of ice-cold pH 7.4, 0.2% BSA/0.01 M PBS. Cellular internalization of ^99mTc-RGD-Lys-(Arg^11)CCMSH was assessed by washing the cells with acidic buffer [40 mM sodium acetate (pH 4.5) containing 0.9% NaCl and 0.2% BSA] to remove the membrane-bound radioactivity. The remaining internalized radioactivity was obtained by lysing the cells with 0.5 ml of 1 N NaOH for 5 min. Membrane-bound and internalized ^99mTc activities were counted in a gamma counter. Cellular efflux of ^99mTc-RGD-Lys-(Arg^11)CCMSH was determined by incubating B16/F1 cells with ^99mTc-RGD-Lys-(Arg^11)CCMSH for 2 h at 25° C., removing non-specific-bound radioactivity with 2×0.5 ml of ice-cold pH 7.4, 0.2% BSA/0.01 M PBS rinse, and monitoring radioactivity released into cell culture media. At time points of […], the radioactivities in media, on cell surface and in cells were separately collected and counted in a gamma counter.
Cellular internalization and efflux of ^99mTc-RGD-Arg-(Arg^11)CCMSH was evaluated in B16/F1 cells as previously described by Yang et al (17). After being washed once with binding medium, B16/F1 cells in 24-well cell culture plates were incubated at 25° C. for 20, 40, 60, 90 and 120 min (n=3) in the presence of approximately 200,000 cpm of HPLC purified 99″Tc-RGD-Arg-(Arg^11)CCMSH. After incubation, the reaction medium was aspirated and the cells were rinsed twice with 0.5 mL of ice-cold pH 7.4, 0.2% BSA/0.01 M PBS. Cellular internalization of ^99mTc-RGD-Arg-(Arg^11)CCMSH was assessed by washing the cells with acidic buffer [40 mM sodium acetate (pH 4.5) containing 0.9% NaCl and 0.2% BSA] to remove the membrane-bound radioactivity. The remaining internalized radioactivity was obtained by lysing the cells with 0.5 mL of 1 N NaOH for 5 min. Membrane-bound and internalized ^99mTc activities were counted in a gamma counter. Cellular efflux of ^99mTc-RGD-Arg-(Arg^11)CCMSH was determined by incubating B16/F1 cells with ^99mTc-RGD-Arg-(Arg^11)CCMSH for 2 h at 25° C., removing non-specific-bound radioactivity with 2×0.5 mL of ice-cold pH 7.4, 0.2% BSA/0.01 M PBS rinse, and monitoring radioactivity released into cell culture medium. At time points of 20, 40, 60, 90 and 120 min, the radioactivities on cell surface and in cells were separately collected and counted in a gamma counter.

Another series deals with B16/F1 melanoma. The experiment in a line: SPECT/CT imaging of melanoma. To be noted: 2 h post-injection. The series is classed as in vivo, C57 mouse. The protocol:
(§1) A B16/F1 melanoma-bearing C57 mouse was injected with 10.4 MBq of ^99mTc-RGD-Lys-(Arg^11)CCMSH via the tail vein. The mouse was anesthetized with 1.5% isoflurane for small animal SPECT/CT (Nano-SPECT/CT®, Bioscan) imaging 2 h post-injection. The 9-min CT imaging was immediately followed by the SPECT imaging of whole-body. The SPECT scans of 24 projections were acquired and total acquisition time was approximately 45 min. After the SPECT imaging, the mouse was euthanized with CO2 inhalation. Reconstructed data from SPECT and CT were visualized and co-registered using InVivoScope (Bioscan, Washington D.C.).
as §1, with “6.1” for “10.4”, “^99mTc-RGD-Arg-(Arg^11)CCMSH” for “^99mTc-RGD-Lys-(Arg^11)CCMSH”, “9-min.” for “9-min”

Series [2] in a line: Urinary metabolites by HPLC. The series is classed as in vivo, C57 mouse. To be noted: urine, 2 h post-injection, RP-HPLC. The protocol:
Urinary metabolites of ^99mTc-RGD-Lys-(Arg^11)CCMSH were determined by injecting 3.7 MBq of […]-RGD-Lys-(Arg^11)CCMSH into a B16/F1 melanoma-bearing C57 mouse through the tail vein. At 2 h after dose administration, the mouse was euthanized and the urine was collected. The radioactive metabolites in the urine were analyzed by injecting aliquots of urine into HPLC. A 20-minute gradient of 16-26% acetonitrile/20 mM HCl was used for the urine analysis.
Urinary metabolites of ^99mTc-RGD-Arg-(Arg^11)CCMSH were determined by injecting 3.7 MBq of ^99mTc-RGD-Arg-(Arg^11)CCMSH into a B16/F1 melanoma-bearing C57 mouse through the tail vein. At 2 h after dose administration, the mouse was euthanized and the urine was collected. The radioactive metabolites in the urine were analyzed by injecting aliquots of urine into HPLC. A 20-minute gradient of 16-26% acetonitrile/20 mM HCl was used for the urine analysis.

As to `CC(C)[C@H](NC(=O)[C@@H]1CCCN1C(=O)[C@H](CCCNC(=N)N)NC(=O)[C@H](CS)NC(=O)[C@H](Cc1c[nH]c2ccccc12)NC(=O)[C@H](CCCNC(=N)N)NC(=O)[C@@H](Cc1ccccc1)NC(=O)[C@H](Cc1c[nH]cn1)NC(=O)[C@H](CCC(=O)O)NC(=O)[C@H](CS)NC(=O)[C@H](CS)NC(=O)[C@H](CCCCN)NC(=O)[C@@H]1CC(=O)N[C@@H](CCCNC(=N)N)C(=O)NCC(=O)N[C@@H](CC(=O)O)C(=O)N[C@H](Cc2ccc(O)cc2)C(=O)N1)C(N)=O` [^99mTc-RGD-Lys-(Arg^11)CCMSH, metal not drawn] (RGD[dY]DKCCEH[dF]RWCRPV-NH2; lactam N-5), the “Cellular efflux: activity remained inside the cells” value in series [1] is 68.57±3.77% and ~69%. Besides, the “Activity internalized in the B16/F1 cells” value in series [1] (2 h incubation) worked out at 85.93±1.22%. Further, the “Visualization of flank melanoma tumors by SPECT/CT” value in the series on B16/F1 melanoma was “visualized clearly”. In series [2], the “Urinary radioactivity: remained intact” value was “Approximately 68%” and the “Urinary radioactivity: transformed to more lipophilic metabolite(s)” value came to 32%.
On to `CC(C)[C@H](NC(=O)[C@@H]1CCCN1C(=O)[C@H](CCCNC(=N)N)NC(=O)[C@H](CS)NC(=O)[C@H](Cc1c[nH]c2ccccc12)NC(=O)[C@H](CCCNC(=N)N)NC(=O)[C@@H](Cc1ccccc1)NC(=O)[C@H](Cc1c[nH]cn1)NC(=O)[C@H](CCC(=O)O)NC(=O)[C@H](CS)NC(=O)[C@H](CS)NC(=O)[C@H](CCCNC(=N)N)NC(=O)[C@@H]1CC(=O)N[C@@H](CCCNC(=N)N)C(=O)NCC(=O)N[C@@H](CC(=O)O)C(=O)N[C@H](Cc2ccc(O)cc2)C(=O)N1)C(N)=O` [^99mTc-RGD-Arg-(Arg^11)CCMSH, metal not drawn] (RGD[dY]DRCCEH[dF]RWCRPV-NH2; lactam N-5), for which the “Activity internalized in the B16/F1 cells” value in series [1] (20 min post incubation) is on record as 62.35±4.08%; in series [1] (2 h incubation), 81.36±0.96%. Further, in series [1], the “Cellular efflux: activity remained inside the cells” value amounted to 58.99±2.03%. Further, the “Visualization of flank melanoma tumors by SPECT/CT” value in the series on B16/F1 melanoma is “visualized clearly”. Besides, the “Urinary radioactivity: remained intact” value in series [2] is listed as “Approximately 73%”. Further, the “Urinary radioactivity: transformed to more lipophilic metabolite(s)” value in series [2] turned out to be 27%.
